Assay results published in patent US11000033B2, “Ketone or oxime compound, and herbicide” (NISSAN CHEMICAL CORPORATION, priority 2014, dated 2021).

Tests used:
Type in all cases: in vivo
wheat = assay: Test Example 5: effect on crop by foliage application, plastic box (symbol e); conditions: 320 g/ha, 3 weeks after application
Procedure, shortened: (§1)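 Plants were raised from seed in a greenhouse (25° C. to 30° C.) after sowing in a plastic box of sterilized diluvial soil.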

rice plant = assay: Test Example 5: effect on crop by foliage application, plastic box (symbol b); conditions: 320 g/ha, 3 weeks after application
Procedure, shortened: as §1

Lolium multiflorum Lam. [1] = assay: Test Example 5: herbicidal effect by foliage application, plastic box (symbol K); conditions: 320 g/ha, 3 weeks after application
Procedure, shortened: (§2)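 Greenhouse foliar test: seedlings at 14 days, grown 25° C. to 30° C. in sterilized diluvial soil; compound applied as an aqueous dilution of an emulsion; response read 3 weeks after spraying.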

Avena fatua = assay: Test Example 5: herbicidal effect by foliage application, plastic box (symbol I); conditions: 320 g/ha, 3 weeks after application
Procedure, shortened: as §2

corn = assay: Test Example 4: effect on crop by soil treatment (symbol c); conditions: application herbicide amount 320 g/ha
Procedure, shortened: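 Soil-treatment setup: crop and weed seeds were spot-sown into sterilized diluvial soil, then buried beneath approximately 1.5 cm of it, and the boxes were housed in a 25–30° C. greenhouse.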

Galium spurium = assay: Test Example 4: herbicidal effect by soil treatment (symbol Q); conditions: application herbicide amount 320 g/ha
Procedure, shortened: (§3)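 Seeds were sown in sterilized diluvial soil, covered with about 1.5 cm of soil, and the soil surface was sprayed with a water-diluted emulsion of the compound at a predetermined rate. Plants grew in a greenhouse at 25° C. to 30° C.; effects were scored visually 3 weeks after application.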

Cyperus difformis = assay: Test Example 3: herbicidal effect by foliage application, Wagner pot (symbol E); conditions: application herbicide amount 320 g/ha
Procedure, shortened: (§4)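 The compound, formulated as an emulsion and diluted with water to a predetermined rate, is applied uniformly to leaves of two-week-old seedlings growing in submerged alluvial soil at 25–30 °C. Rice is included. Each plant is assessed 3 weeks later using defined criteria.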

Scirpus juncoides = assay: Test Example 2: herbicidal activity, application during weed generation in submerged conditions (symbol B); conditions: Table 23; application herbicide amount 320 g/ha; grade 0-5 by criteria of Test Example 1
Procedure, shortened: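 Treatment timing was the one- to two-leaf stage, with diluted emulsifiable compound dropped onto the paddy water (depth 4 cm) over alluvial soil. All three species grew from a mixed sowing in a 25° C. to 30° C. greenhouse. Injury was judged by eye 3 weeks on.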

[2] = test system: Echinochloa crus-galli var. crus-galli; assay: Test Example 4: herbicidal effect by soil treatment (symbol H); conditions: application herbicide amount 320 g/ha
Procedure, shortened: as §3

rice = assay: Test Example 4: effect on crop by soil treatment (symbol b); conditions: application herbicide amount 320 g/ha
Procedure, shortened: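 Sterilized diluvial soil, spot sowing, ~1.5 cm soil cover; greenhouse 25–30° C.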

Alopecurus myosuroides = assay: Test Example 5: herbicidal effect by foliage application, plastic box (symbol J); conditions: 320 g/ha, 3 weeks after application
Procedure, shortened: as §2

Setaria viridis = assay: Test Example 5: herbicidal effect by foliage application, plastic box (symbol G); conditions: 320 g/ha, 3 weeks after application
Procedure, shortened: as §2

Apera spica-venti = assay: Test Example 4: herbicidal effect by soil treatment (symbol L); conditions: application herbicide amount 320 g/ha
Procedure, shortened: as §3

Stellaria media = assay: Test Example 5: herbicidal effect by foliage application, plastic box (symbol P); conditions: 320 g/ha, 3 weeks after application
Procedure, shortened: as §2

Veronica persica = assay: Test Example 5: herbicidal effect by foliage application, plastic box (symbol R); conditions: 320 g/ha, 3 weeks after application
Procedure, shortened: as §2

[3] = test system: Echinochloa crus-galli var. crus-galli; assay: Test Example 3: herbicidal effect by foliage application, Wagner pot (symbol H); conditions: application herbicide amount 320 g/ha
Procedure, shortened: as §4

Lolium multiflorum Lam. [4] = assay: Test Example 4: herbicidal effect by soil treatment (symbol K); conditions: application herbicide amount 320 g/ha
Procedure, shortened: as §3

For `Cc1cc(C)c(C2=C(O)CC(CC(=O)C3CCCC3)C2=O)c(C)c1` (centres unmarked) [2-028], the “e: wheat, effect on crop grade” value (wheat) was 0 (Herbicidal ratio of 5% or lower (almost no effect)), the “b: directly sowed rice plant, effect on crop grade” value (from here on “b: directly sowed rice plant”) (rice plant) was 5 (Herbicidal ratio of 90% or more (almost completely withered)) and the “K: Lolium multiflorum Lam., herbicidal effect grade” value (Lolium multiflorum Lam. [1]) was 5 (Herbicidal ratio of 90% or more (almost completely withered)). For the same compound, the “I: Avena fatua, herbicidal effect grade” value (Avena fatua) was 0 (Herbicidal ratio of 5% or lower (almost no effect)), the “c: corn, effect on crop grade” value (corn) was 2 (Herbicidal ratio of 20% or higher and lower than 40%) and the “Q: Galium spurium, herbicidal effect grade” value (“Q: Galium spurium” for short) (Galium spurium) was 0 (Herbicidal ratio of 5% or lower (almost no effect)). The “herbicidal effect on E, grade 0-5” value (Cyperus difformis) was 4 (Herbicidal ratio of 70% or higher and lower than 90%), the “Herbicidal effect grade, B: Scirpus juncoides” value (“Herbicidal effect grade, B” below) (Scirpus juncoides) was 0 (Herbicidal ratio of 5% or lower (almost no effect)) and the “H: Echinochloa crus-galli var. crus-galli, herbicidal effect grade” value [2] was 1 (Herbicidal ratio of 5% or higher and lower than 20%). For the same compound, the “b: directly sowed rice plant” value (rice) was 5 (Herbicidal ratio of 90% or more (almost completely withered)), the “J: Alopecurus myosuroides, herbicidal effect grade” value (“J: Alopecurus myosuroides” below) (Alopecurus myosuroides) was 4 (Herbicidal ratio of 70% or higher and lower than 90%) and the “G: Setaria viridis, herbicidal effect grade” value (“G: Setaria viridis” for short) (Setaria viridis) was 5 (Herbicidal ratio of 90% or more (almost completely withered)). The “L: Apera spica-venti, herbicidal effect grade” value (shortened to “L: Apera spica-venti”) (Apera spica-venti) was 2 (Herbicidal ratio of 20% or higher and lower than 40%), the “P: Stellaria media, herbicidal effect grade” value (“P: Stellaria media” below) (Stellaria media) was 0 (Herbicidal ratio of 5% or lower (almost no effect)) and the “R: Veronica persica, herbicidal effect grade” value (from here on “R: Veronica persica”) (Veronica persica) was 0 (Herbicidal ratio of 5% or lower (almost no effect)). For the same compound, the “herbicidal effect on H (Echinochloa crus-galli var. crus-galli), grade 0-5” value (“herbicidal effect on H” below) [3] was 5 (Herbicidal ratio of 90% or more (almost completely withered)) and the “K: Lolium multiflorum Lam., herbicidal effect grade” value (Lolium multiflorum Lam. [4]) was 5 (Herbicidal ratio of 90% or more (almost completely withered)).
In the case of `CON=C(C)CC1CC(OC(=O)c2ccccc2)=C(c2c(C)cc(C)cc2C)C1=O` (centres unmarked) [1-010], the “e: wheat, effect on crop grade” value (wheat) is reported as 5 (Herbicidal ratio of 90% or more (almost completely withered)), the “b: directly sowed rice plant” value (rice plant) is reported as 5 (Herbicidal ratio of 90% or more (almost completely withered)) and the “K: Lolium multiflorum Lam., herbicidal effect grade” value (Lolium multiflorum Lam. [1]) is reported as 5 (Herbicidal ratio of 90% or more (almost completely withered)). For the same compound, the “I: Avena fatua, herbicidal effect grade” value (Avena fatua) was 5 (Herbicidal ratio of 90% or more (almost completely withered)), the “c (corn) effect on crop grade” value (corn) was 4 (Herbicidal ratio of 70% or higher and lower than 90%) and the “Q (Galium spurium) herbicidal effect grade” value (Galium spurium) was 2 (Herbicidal ratio of 20% or higher and lower than 40%). For the same compound, the “herbicidal effect on E, grade 0-5” value (Cyperus difformis) was 5 (Herbicidal ratio of 90% or more (almost completely withered)), the “Herbicidal effect grade, B” value (Scirpus juncoides) was 5 (Herbicidal ratio of 90% or more (almost completely withered)) and the “H (Echinochloa crus-galli var. crus-galli) herbicidal effect grade” value [2] was 5 (Herbicidal ratio of 90% or more (almost completely withered)). The “b (directly sowed rice plant) effect on crop grade” value (rice) was 5 (Herbicidal ratio of 90% or more (almost completely withered)), the “J: Alopecurus myosuroides” value (Alopecurus myosuroides) was 5 (Herbicidal ratio of 90% or more (almost completely withered)) and the “G: Setaria viridis” value (Setaria viridis) was 5 (Herbicidal ratio of 90% or more (almost completely withered)). For the same compound, the “L (Apera spica-venti) herbicidal effect grade” value (Apera spica-venti) was 5 (Herbicidal ratio of 90% or more (almost completely withered)), the “P: Stellaria media” value (Stellaria media) was 4 (Herbicidal ratio of 70% or higher and lower than 90%) and the “R: Veronica persica” value (Veronica persica) was 4 (Herbicidal ratio of 70% or higher and lower than 90%). The “herbicidal effect on H” value [3] was 5 (Herbicidal ratio of 90% or more (almost completely withered)) and the “K (Lolium multiflorum Lam.) herbicidal effect grade” value (Lolium multiflorum Lam. [4]) was 5 (Herbicidal ratio of 90% or more (almost completely withered)).
For `CON=C(C)CC1CC(O)=C(c2c(C)cc(C#CCO)cc2C)C1=O` (mixture of isomers) [6-025], the “e: wheat, effect on crop grade” value (wheat) was 1 (Herbicidal ratio of 5% or higher and lower than 20%), the “b: directly sowed rice plant” value (rice plant) was 5 (Herbicidal ratio of 90% or more (almost completely withered)) and the “K: Lolium multiflorum Lam., herbicidal effect grade” value (Lolium multiflorum Lam. [1]) was 5 (Herbicidal ratio of 90% or more (almost completely withered)). For the same compound, the “I: Avena fatua, herbicidal effect grade” value (Avena fatua) was 5 (Herbicidal ratio of 90% or more (almost completely withered)), the “c: corn, effect on crop grade” value (corn) was 0 (Herbicidal ratio of 5% or lower (almost no effect)) and the “Q: Galium spurium” value (Galium spurium) was 0 (Herbicidal ratio of 5% or lower (almost no effect)). For the same compound, the “herbicidal effect on E, grade 0-5” value (Cyperus difformis) was 4 (Herbicidal ratio of 70% or higher and lower than 90%), the “Herbicidal effect grade, B” value (Scirpus juncoides) was 0 (Herbicidal ratio of 5% or lower (almost no effect)) and the “H: Echinochloa crus-galli var. crus-galli, herbicidal effect grade” value [2] was 0 (Herbicidal ratio of 5% or lower (almost no effect)). For the same compound, the “b: directly sowed rice plant” value (rice) was 5 (Herbicidal ratio of 90% or more (almost completely withered)), the “J: Alopecurus myosuroides” value (Alopecurus myosuroides) was 5 (Herbicidal ratio of 90% or more (almost completely withered)) and the “G: Setaria viridis” value (Setaria viridis) was 5 (Herbicidal ratio of 90% or more (almost completely withered)). For the same compound, the “L: Apera spica-venti” value (Apera spica-venti) was 4 (Herbicidal ratio of 70% or higher and lower than 90%), the “P: Stellaria media” value (Stellaria media) was 0 (Herbicidal ratio of 5% or lower (almost no effect)) and the “R: Veronica persica” value (Veronica persica) was 0 (Herbicidal ratio of 5% or lower (almost no effect)). For the same compound, the “herbicidal effect on H” value [3] was 5 (Herbicidal ratio of 90% or more (almost completely withered)) and the “K: Lolium multiflorum Lam., herbicidal effect grade” value (Lolium multiflorum Lam. [4]) was 5 (Herbicidal ratio of 90% or more (almost completely withered)).
With `CON=C(C)CC1CC(O)=C(c2c(C)cc(OCC(F)(F)F)cc2C)C1=O` (centres unmarked) [6-049] the “e: wheat, effect on crop grade” value (wheat) was 5 (Herbicidal ratio of 90% or more (almost completely withered)), the “b: directly sowed rice plant” value (rice plant) was 5 (Herbicidal ratio of 90% or more (almost completely withered)) and the “K: Lolium multiflorum Lam., herbicidal effect grade” value (Lolium multiflorum Lam. [1]) was 5 (Herbicidal ratio of 90% or more (almost completely withered)). For the same compound, the “I: Avena fatua, herbicidal effect grade” value (Avena fatua) was 0 (Herbicidal ratio of 5% or lower (almost no effect)), the “c: corn, effect on crop grade” value (corn) was 5 (Herbicidal ratio of 90% or more (almost completely withered)) and the “Q: Galium spurium” value (Galium spurium) was 3 (Herbicidal ratio of 40% or higher and lower than 70%). The “herbicidal effect on E, grade 0-5” value (Cyperus difformis) was 5 (Herbicidal ratio of 90% or more (almost completely withered)), the “Herbicidal effect grade, B” value (Scirpus juncoides) was 4 (Herbicidal ratio of 70% or higher and lower than 90%) and the “H: Echinochloa crus-galli var. crus-galli, herbicidal effect grade” value [2] was 5 (Herbicidal ratio of 90% or more (almost completely withered)). The “b: directly sowed rice plant” value (rice) was 5 (Herbicidal ratio of 90% or more (almost completely withered)), the “J: Alopecurus myosuroides” value (Alopecurus myosuroides) was 5 (Herbicidal ratio of 90% or more (almost completely withered)) and the “G: Setaria viridis” value (Setaria viridis) was 5 (Herbicidal ratio of 90% or more (almost completely withered)). For the same compound, the “L: Apera spica-venti” value (Apera spica-venti) was 5 (Herbicidal ratio of 90% or more (almost completely withered)), the “P: Stellaria media” value (Stellaria media) was 5 (Herbicidal ratio of 90% or more (almost completely withered)) and the “R: Veronica persica” value (Veronica persica) was 5 (Herbicidal ratio of 90% or more (almost completely withered)). The “herbicidal effect on H” value [3] was 5 (Herbicidal ratio of 90% or more (almost completely withered)) and the “K: Lolium multiflorum Lam., herbicidal effect grade” value (Lolium multiflorum Lam. [4]) was 5 (Herbicidal ratio of 90% or more (almost completely withered)).
